The source made the active and inactive calls. The rule behind the calls is not given here.
What was measured:
[1] = molecular target: T1, RAC-beta serine/threonine-protein kinase (Homo sapiens, UniProt P31751); test: Inhibition of AKT2 at 50 uM by FRET based assay
[2] = molecular target: T1, RAC-beta serine/threonine-protein kinase; test: Inhibition of AKT2 at 25 uM by FRET based assay
[3] = molecular target: RAC-alpha serine/threonine-protein kinase (Homo sapiens, UniProt P31749); test: Inhibition of AKT1 by FRET based assay
Chain of RAC-alpha serine/threonine-protein kinase (P31749 whole entry): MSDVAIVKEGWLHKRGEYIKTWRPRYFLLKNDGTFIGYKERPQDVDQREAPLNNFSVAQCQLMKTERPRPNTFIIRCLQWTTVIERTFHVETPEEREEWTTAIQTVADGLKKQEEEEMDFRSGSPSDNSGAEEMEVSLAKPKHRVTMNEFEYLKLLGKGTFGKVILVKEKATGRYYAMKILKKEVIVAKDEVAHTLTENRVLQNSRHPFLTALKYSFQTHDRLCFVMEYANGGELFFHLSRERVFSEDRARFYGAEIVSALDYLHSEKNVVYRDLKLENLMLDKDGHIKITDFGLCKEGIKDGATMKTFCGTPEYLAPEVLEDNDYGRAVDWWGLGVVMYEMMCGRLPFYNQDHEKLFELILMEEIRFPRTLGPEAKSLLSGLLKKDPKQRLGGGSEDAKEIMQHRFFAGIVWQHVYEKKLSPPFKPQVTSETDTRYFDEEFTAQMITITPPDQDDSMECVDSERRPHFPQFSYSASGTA

[4] = molecular target: T1, RAC-beta serine/threonine-protein kinase; test: Inhibition of AKT2 by FRET based assay
[5] = molecular target: RAC-gamma serine/threonine-protein kinase (Homo sapiens, UniProt Q9Y243); test: Inhibition of AKT3 by FRET based assay
Chain of RAC-gamma serine/threonine-protein kinase (Q9Y243 whole entry): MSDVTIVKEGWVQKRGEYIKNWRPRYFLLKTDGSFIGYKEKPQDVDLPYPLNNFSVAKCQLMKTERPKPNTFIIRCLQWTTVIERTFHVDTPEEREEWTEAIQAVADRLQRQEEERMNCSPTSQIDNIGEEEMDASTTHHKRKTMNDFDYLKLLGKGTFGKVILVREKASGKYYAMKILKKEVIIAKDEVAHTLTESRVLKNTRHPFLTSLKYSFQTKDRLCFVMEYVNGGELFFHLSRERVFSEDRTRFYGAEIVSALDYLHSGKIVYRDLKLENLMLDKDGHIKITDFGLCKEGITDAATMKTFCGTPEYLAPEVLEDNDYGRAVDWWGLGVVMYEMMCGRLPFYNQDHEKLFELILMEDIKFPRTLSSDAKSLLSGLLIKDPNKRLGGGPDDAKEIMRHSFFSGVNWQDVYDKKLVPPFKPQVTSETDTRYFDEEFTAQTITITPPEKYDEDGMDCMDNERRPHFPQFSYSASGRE

MDA-MB-468 = test: Cytotoxicity against human MDA-MB-468 cells with PTEN mutation and EGFR amplification after 12 hrs by MTT assay; format: functional, cell-based; details: MDA-MB-468, 12 h
MDA-MB-453 = test: Cytotoxicity against human MDA-MB-453 cells with PIK3CA mutation and HER2 amplification after 12 hrs by MTT assay; format: functional, cell-based; details: MDA-MB-453, 12 h

T1 sequence (P31751 whole entry): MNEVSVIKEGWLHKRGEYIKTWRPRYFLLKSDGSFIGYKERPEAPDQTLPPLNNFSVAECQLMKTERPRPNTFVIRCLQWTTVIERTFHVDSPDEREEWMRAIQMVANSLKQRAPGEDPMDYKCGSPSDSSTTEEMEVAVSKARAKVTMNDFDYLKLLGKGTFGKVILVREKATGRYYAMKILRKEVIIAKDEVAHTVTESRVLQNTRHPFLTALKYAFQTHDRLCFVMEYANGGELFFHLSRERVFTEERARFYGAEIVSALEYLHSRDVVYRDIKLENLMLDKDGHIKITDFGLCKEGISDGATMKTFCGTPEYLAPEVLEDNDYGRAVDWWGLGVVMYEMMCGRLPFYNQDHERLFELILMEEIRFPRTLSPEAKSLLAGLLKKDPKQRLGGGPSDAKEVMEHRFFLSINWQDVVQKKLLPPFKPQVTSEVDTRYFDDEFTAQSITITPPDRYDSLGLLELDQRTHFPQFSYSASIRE

| SMILES | Activity [1] | Activity [2] | IC50 [3] [µM] | IC50 [4] [µM] | IC50 [5] [µM] | EC50 (MDA-MB-468) [µM] | EC50 (MDA-MB-453) [µM] |
| --- | --- | --- | --- | --- | --- | --- | --- |
| O=S(=O)(NCCNC/C=C/c1ccc(Br)cc1)c1cccc2cnccc12 | inactive | inactive | – | – | – | – | – |
| Clc1ccc(C2(c3ccc(-c4cn[nH]c4)cc3)CCNCC2)cc1 | inactive | inactive | – | – | – | – | – |
| O=C1COc2ccc(-c3cc(-c4ccccc4)cc(-c4ccc5oc(=O)[nH]c5c4)n3)cc2N1 | – | – | 2.6 | 1.5 | 4 | 3.8 | 10 |
